Read-outs that look alike come from different tables or passages of the source.
Experiments:
[1] = Nonclinical toxicologic profile (overall conclusion from the toxicity studies)
Text: (§1) A study in rabbits examined local ocular tolerance and subchronic ocular toxicity after multiple daily administrations over a six-week period.
(§2) A study in rabbits examines local ocular tolerance and subchronic ocular toxicity after multiple daily administrations over a six-week period.

[2] = type: physicochemical
Procedure: The maximum solubility in water was thus determined to be ca. 900 mg/mL. […] The tetrasodium salt of P^1,P^4-di(uridine 5′-) tetraphosphate was thus determined to have an excellent solubility and stability profile suitable for pharmaceutical applications. […]

[3] = tested on: rabbits; assay: Local ocular tolerance and subchronic ocular toxicity study in rabbits; type: in vivo; details: multiple daily administrations over six weeks
Text: as §1, §2

[4] = tested on: dogs; assay: Single-dose acute intravenous toxicity study in dogs; type: in vivo
[5] = tested on: normal healthy male volunteers; type: in vivo, human
Procedure: Forty non-smokers and 35 smokers were evaluated in 5 dosing cohorts of 16 volunteers, comprised of 12 receiving a single aerosolized dose of P^1,P^4-di(uridine 5′-) tetraphosphate, tetrasodium salt (20-400 mg) and 4 receiving placebo (normal saline).

[6] = tested on: rat; assay: Single-dose acute inhalation toxicity study in rat; type: in vivo; details: rats
[7] = tested on: dog; assay: Single-dose acute inhalation toxicity study in dog; type: in vivo; details: dogs

P^1,P^4-di(uridine 5′-)tetraphosphate, disodiumdipotassium salt
toxicology profile ([1]; present-tense example): excellent toxicology profile with a wide safety margin | stability profile [2]: excellent | adverse findings in ocular toxicology studies ([3]; present-tense example): No adverse findings

P^1,P^4-di(uridine 5′-)tetraphosphate, monolithiummonopotassiumdisodium salt
stability profile [2]: excellent

P^1,P^4-di(uridine 5′-)tetraphosphate, monopotassiumtrilithium salt
toxicology profile ([1]; present-tense example): excellent toxicology profile with a wide safety margin | stability profile [2]: excellent | adverse findings in ocular toxicology studies ([3]; present-tense example): No adverse findings

P^1,P^4-di(uridine 5′-)tetraphosphate, tetralithium salt
toxicology profile ([1]; present-tense example): excellent toxicology profile with a wide safety margin | stability profile [2]: excellent | adverse findings in ocular toxicology studies ([3]; present-tense example): No adverse findings

P^1,P^4-di(uridine 5′-)tetraphosphate, tetrapotassium salt
toxicology profile ([1]; present-tense example): excellent toxicology profile with a wide safety margin | stability profile [2]: excellent | adverse findings in ocular toxicology studies ([3]; present-tense example): No adverse findings

P^1,P^4-di(uridine 5′-)tetraphosphate, tetrasodium salt
toxicology profile [1]: excellent toxicology profile with a wide safety margin | degradation [2]: less than 1.5% | maximum solubility in water [2]: ca. 900 mg/mL | solubility profile [2]: excellent | stability profile [2]: excellent | acute toxicity [4]: low degree of acute toxicity | stimulating the expectoration of sputum compared to placebo ([5]; conclusion): effective | safety and tolerability ([5]; in vivo): safe and well-tolerated | effect to induce the expectoration of sputum ([5]; non-smokers): observed | stimulation of sputum expectoration over the next hour of sputum collection ([5]; smokers): sustained | adverse findings in ocular toxicology studies [3]: No adverse findings | acute toxicity [6]: low degree of acute toxicity | acute toxicity [7]: low degree of acute toxicity

Reference: patent US7939510B2, “Di(uridine 5′-)tetraphosphate and salts thereof” (priority 1997, dated 2011)
